This is an account of results in patent publication US20120095029A1, “IPP COMPLEX AS MARKER FOR ERLOTINIB TREATMENT” (Hoffmann-La Roche Inc., priority 2010, published 2012).

In data set [1] the target is PINCH (Homo sapiens, UniProt P48059). The settings on record: H292 cell lysate preincubated with free compound (0-400 μM), then beads with immobilized compound.
Data set [2] has as its target ILK (Homo sapiens, UniProt Q13418). To be noted: H292 cell lysate preincubated with free compound (0-400 μM), then beads with immobilized compound.
Data set [3] has as its target alpha-parvin (Homo sapiens, UniProt Q9NVD7). The settings on record: H292 cell lysate preincubated with free compound (0-400 μM), then beads with immobilized compound.
Data set [4] has as its system H358 cells. As to the kind of experiment: Testing EMT transition on H358 NSCLC cell line (TGFbeta3 treatment, western blot). It counts as cell-based, human. The settings on record: 10 ng/mL TGFbeta3 plus compound 5 μM; for Level of E-cadherin: up to 13 days. The procedure:
Cell culture medium was renewed every 3 days. Cell lysis was performed in PBS containing 1% NP-40 and protease inhibitors. After clearing by centrifugation at 12,000 g for 15 min at 4° C., proteins were separated by SDS-PAGE and processed for western blot analysis. Images were acquired using a compact digital camera (Luminescent Image Analyzer: Fujifilm, Tokyo, Japan) and quantified with ImageQuant TL (GE Healthcare, Waukesha, Wis., USA).
Background: A western blot detects proteins with antibodies after separation by electrophoresis.

In data set [5] the test system is NSCLC patients. To be noted: single agent; patients for whom standard therapy for advanced disease has failed; cited from earlier work.
Data set [6] deals with NSCLC patients. The settings on record: unselected patient population; cited from earlier work.
For data set [7], the system named is patients with NSCLC. To be noted: second line after cisplatin-based first-line regimens failed; ECOG 0, 1 or 2; cited from earlier work.
Data set [8] concerns NSCLC. The settings on record: second line therapy of NSCLC; cited from earlier work.

The structures appear in SMILES notation. Structures can show the parent of a compound that is named as a salt.

PINCH, sequence (P48059 2-325): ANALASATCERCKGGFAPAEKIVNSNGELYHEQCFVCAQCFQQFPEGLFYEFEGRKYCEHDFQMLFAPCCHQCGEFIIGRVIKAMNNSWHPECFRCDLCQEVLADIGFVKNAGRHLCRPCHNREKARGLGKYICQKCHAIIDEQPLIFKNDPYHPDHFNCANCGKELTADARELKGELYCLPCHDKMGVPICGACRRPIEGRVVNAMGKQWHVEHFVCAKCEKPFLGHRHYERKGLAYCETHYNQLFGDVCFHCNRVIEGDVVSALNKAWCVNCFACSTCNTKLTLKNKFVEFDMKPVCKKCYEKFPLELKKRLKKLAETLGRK
PINCH, sequence (Q13418 whole entry partner): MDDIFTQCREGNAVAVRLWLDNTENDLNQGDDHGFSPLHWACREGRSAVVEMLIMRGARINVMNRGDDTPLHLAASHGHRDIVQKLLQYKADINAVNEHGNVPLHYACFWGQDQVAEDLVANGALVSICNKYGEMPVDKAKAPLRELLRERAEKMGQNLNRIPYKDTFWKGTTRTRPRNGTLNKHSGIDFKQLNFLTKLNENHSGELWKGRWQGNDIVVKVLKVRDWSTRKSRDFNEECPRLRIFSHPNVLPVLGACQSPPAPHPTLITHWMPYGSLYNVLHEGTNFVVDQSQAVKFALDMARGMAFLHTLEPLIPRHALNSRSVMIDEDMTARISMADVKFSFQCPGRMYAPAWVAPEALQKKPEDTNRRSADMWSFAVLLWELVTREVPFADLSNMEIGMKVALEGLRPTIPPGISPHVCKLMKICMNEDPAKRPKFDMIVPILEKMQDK
PINCH, sequence (Q9NVD7 2-372 partner): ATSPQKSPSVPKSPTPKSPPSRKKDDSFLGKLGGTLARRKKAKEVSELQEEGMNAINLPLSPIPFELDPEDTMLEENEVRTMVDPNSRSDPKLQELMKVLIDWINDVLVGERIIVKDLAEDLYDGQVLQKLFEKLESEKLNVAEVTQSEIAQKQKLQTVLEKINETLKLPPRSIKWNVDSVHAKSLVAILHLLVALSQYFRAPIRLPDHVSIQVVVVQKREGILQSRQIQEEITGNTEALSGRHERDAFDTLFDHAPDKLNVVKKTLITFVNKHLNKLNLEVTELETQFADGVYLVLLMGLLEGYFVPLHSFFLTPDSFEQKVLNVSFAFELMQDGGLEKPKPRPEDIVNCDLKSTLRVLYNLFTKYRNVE
alpha-parvin, sequence (Q9NVD7 2-372 limits assumed): as the sequence (Q9NVD7 2-372 partner) above
alpha-parvin, sequence (Q13418 whole entry partner): as the sequence (Q13418 whole entry partner) above
alpha-parvin, sequence (P48059 2-325 partner limits assumed): as the sequence (P48059 2-325) above
ILK, sequence (Q13418 whole entry): as the sequence (Q13418 whole entry partner) above

Regarding `C#Cc1cccc(Nc2ncnc3cc(OCCOC)c(OCCOC)cc23)c1` [Erlotinib hydrochloride, erlotinib hydrochloride], the “Signal Reduction (%) PINCH” value in data set [1] amounted to 87.7%. For the same compound, in data set [2], the “Signal Reduction (%) ILK” value was 77.3%. For the same compound, the “Signal Reduction (%) alpha-parvin” value in data set [3] is reported as 79.5%. In data set [4], the ILK expression level entry is reported as “do not change”, the PINCH expression level result was “do not change” and the “Level of E-cadherin” value is “remained unchanged”. Besides, the “Survival of NSCLC patients” value in data set [5] was “significantly prolongs and improves the survival”.

In the case of `COc1cc2ncnc(Nc3ccc(F)c(Cl)c3)c2cc1OCCCN1CCOCC1` [Gefitinib, gefitinib], the “Signal Reduction (%) PINCH” value in data set [1] was found to be 0.0%. In addition, in data set [3], the “Signal Reduction (%) alpha-parvin” value came to 0.0%. Moreover, in data set [6], the Clinical benefit entry is reported as “does not seem to confer clinical benefit”. In data set [4], the ILK expression level entry is “not so pronounced”, the PINCH expression level result was “not so pronounced” and the “Level of E-cadherin” value was “fails to inhibit the TGFb3-mediated decrease of E-cadherin levels”.

As for `CC(=O)O[C@@]12CO[C@@H]1C[C@H](O)[C@@]1(C)C(=O)[C@H](O)C3=C(C)[C@@H](OC(=O)[C@H](O)[C@@H](NC(=O)OC(C)(C)C)c4ccccc4)C[C@@](O)([C@@H](OC(=O)c4ccccc4)[C@H]21)C3(C)C` [docetaxel], in data set [7], the Survival result is “improved survival”.

On to `Nc1nc2[nH]cc(CCc3ccc(C(=O)N[C@@H](CCC(=O)O)C(=O)O)cc3)c2c(=O)[nH]1` [pemetrexed], for which, in data set [8], the “Efficacy compared with docetaxel” value was “clinically equivalent efficacy” and the “Side effects compared with docetaxel” value was “significantly fewer side effects”.
